“And” between values parts separate entries of the source, which are not always exact repeats. Equal values may be shown once. Read-outs that look alike come from different tables or passages of the source. Each block holds one compound with its values, some of them ahead of it.
Legend:
HT29 cells = assay: CellTiter-Glo cell viability, drugs alone or in combination, HT29 cells; details: Homo sapiens, HT-29, 72 h
Procedure: After administration, cells were cultured in the CO2 incubator for another 72 hrs, and afterwards, cell viability was tested by using CellTiter-Glo® reagent and luminescence detector. Curves were plotted according to concentrations or logarithm concentrations of drug A vs cell inhibition rate in the corresponding cell well, and IC50, i.e. (Am)50 was calculated. […]

OVCAR-3 cells = assay: CellTiter-Glo cell viability, drugs alone or in combination, OVCAR-3 cells; details: 72 hrs
HeLa cells = assay: CellTiter-Glo cell viability, drugs alone or in combination, HeLa cells; assay type: cell-based, human
Procedure: (§1) isothiocyanates or derivatives thereof and DNA-effecting or influencing anticancer drugs, kinase-inhibiting anticancer drugs or hormonal anticancer drugs for endocrine therapy were administered separately or in combination to cancer cells. Cells were seeded into 384-well plates, and cultured for 24 hours in a CO2 incubator. Drugs were dissolved in DMSO and diluted to 9 concentration-gradients in 96 well plates, and then added to corresponding cells in 384-well plates, in which the concentrations of DMSO in 384 well plates were less than 1%. Triplicate wells were set for each concentration. After administration, the cells were cultured in the CO2 incubator for another 72 hrs, and afterwards, cell viability was tested by using CellTiter-Glo® reagent and luminescence detector. And IC50 values of each administration group were calculated.
(§2) CI value was calculated by the following formula: CI=(Am)50/(As)50+(Bm)50/(Bs)50,
(§3) Triplicate wells were set for each co-administration cell well.
(§4) After administration, cells were cultured in the CO2 incubator for another 72 hrs, and afterwards, cell viability was tested by using CellTiter-Glo® reagent and luminescence detector. Curves were plotted according to concentrations or logarithm concentrations of drug A vs cell inhibition rate in the corresponding cell well, and IC50, i.e. (Am)50 was calculated.
(§5) 9 concentration gradients of drug A were set (A1, A2, A3, A4, A5, A6, A7, A8, A9), and administrated alone to the corresponding cells in the 384 well plate, and triplicate wells were set for each administration concentration. After administration, the cells were cultured in the CO2 incubator for another 72 hrs, and afterwards, cell viability was tested by using CellTiter-Glo® reagent and luminescence detector. Curves were plotted according to concentration or logarithm concentration of drug A vs the cell inhibition rate in the corresponding cell well, and IC50, i.e. (As)50 was calculated.
(§6) After administration, the cells were cultured in the CO2 incubator for another 72 hrs, and afterwards, cell viability was tested by using CellTiter-Glo® reagent and luminescence detector.

DU145 cells = assay: CellTiter-Glo cell viability, drugs alone or in combination, DU145 cells; assay type: cell-based, human
Procedure: (§7) Cell culture: Androgen-dependent human prostate cancer cells LNCaP, from Shanghai Medicilon Ltd., were placed in a 37° C., 5% CO2 cell incubator, and were cultured in RPMI1640 culture medium with 10% FBS. Androgen-independent human prostate cancer cells DU145, PC-3, from Shanghai Medicilon Ltd., were placed in a 37° C., 5% CO2 cell incubator, and were cultured in F12 culture medium with 10% FBS.
as §1, §2, §3, §4, §5, §6

LNCaP cells = assay: CellTiter-Glo cell viability, drugs alone or in combination, LNCaP cells; assay type: cell-based, human; details: LNCaP cells, 72 hrs
Procedure: as §7, §1, §2, §3, §4, §5, §6

PC-3 cells = assay: CellTiter-Glo cell viability, drugs alone or in combination, PC-3 cells; assay type: cell-based; details: Homo sapiens, 72 hrs
Procedure: as §7
isothiocyanates or derivatives thereof and DNA-effecting or influencing anticancer drugs, kinase-inhibiting anticancer drugs or hormonal anticancer drugs for endocrine therapy were administered separately or in combination to cancer cells. […] After administration, the cells were cultured in the CO2 incubator for another 72 hrs, and afterwards, cell viability was tested by using CellTiter-Glo® reagent and luminescence detector. And IC50 values of each administration group were calculated.
CI value was calculated by the following formula: CI=(Am)50/(As)50+(Bm)50/(Bs)50, […]
as §4, with “calculated. […]” for “calculated.”

U251 cells = assay: CellTiter-Glo cell viability, drugs alone or in combination, U251 cells; details: Homo sapiens, U-251, 72 h, read-out: (As)50, IC50 of drug A when used alone, U251 cells; 72 hrs
Saos-2 cells = assay: CellTiter-Glo cell viability, drugs alone or in combination, Saos-2 cells; assay type: cell-based, human; details: Saos-2 cells, 72 hrs
Procedure: as §1, §2, §3, §4, §5, §6

A549 cells = assay: CellTiter-Glo cell viability, drugs alone or in combination, A549 cells; assay type: cell-based, human
Procedure: as §1, §2, §3, §4, §5, §6

[1] = system: human leukemia HL-60 cells; assay: CellTiter-Glo cell viability, drugs alone or in combination, HL-60 cells; assay type: cell-based; details: read-out: (As)50, IC50 of drug A when used alone
Procedure: as §1, §2, §3, §4, §5, §6

SK-MEL-28 cells = assay: CellTiter-Glo cell viability, drugs alone or in combination, SK-MEL-28 cells; assay type: cell-based; details: Homo sapiens, 72 hrs
Procedure: as §1, §2, §3
as §4, with “calculated. […]” for “calculated.”

Jurkat E6-1 cells = assay: CellTiter-Glo cell viability, drugs alone or in combination, Jurkat E6-1 cells; assay type: cell-based, human; details: Jurkat E6-1 cells, 72 hrs, read-out: (As)50, IC50 of drug A when used alone
Procedure: as §1, §2, §3, §4, §5, §6

[2] = system: human gastric cancer AGS cells; assay: CellTiter-Glo cell viability, drugs alone or in combination, AGS cells
[3] = system: pancreatic cancer cells PANC-1; assay: CellTiter-Glo cell viability, drugs alone or in combination, PANC-1 cells; assay type: cell-based, human; details: PANC-1 cells, 72 hrs
Procedure: as §1, §2, §3, §4, §5, §6

[4] = system: human kidney cancer cells 786-O; assay: CellTiter-Glo cell viability, drugs alone or in combination, 786-O cells; details: 786-0, 72 h, read-out: (As)50, IC50 of drug A when used alone, 786-O cells, 72 hrs
[5] = system: Human breast cancer MDA-MB-231 cells; assay: CellTiter-Glo cell viability, drugs alone or in combination, MDA-MB-231 cells; details: 72 hrs
[6] = read-out: (Bs)50, IC50 of drug B when used alone
[7] = Homo sapiens, DU-145, 72 h, read-out: (Bs)50, IC50 of drug B when used alone
[8] = Homo sapiens, LNCaP, 72 h, read-out: (Bs)50, IC50 of drug B when used alone
[9] = 72 hrs, read-out: (As)50, IC50 of drug A when used alone
[10] = Homo sapiens, SAOS-2, 72 h, read-out: (As)50, IC50 of drug A when used alone
[11] = read-out: (As)50, IC50 of drug A when used alone
[12] = Homo sapiens, HeLa, 72 h, read-out: (As)50, IC50 of drug A when used alone
[13] = Homo sapiens, PANC-1, 72 h, read-out: (As)50, IC50 of drug A when used alone
[14] = Homo sapiens, LNCaP, 72 h, read-out: (As)50, IC50 of drug A when used alone
[15] = Homo sapiens, MDA-MB-231, 72 h, read-out: (As)50, IC50 of drug A when used alone, MDA-MB-231 cells
[16] = Homo sapiens, AGS, 72 h, read-out: (Bs)50, IC50 of drug B when used alone, AGS cells
[17] = Homo sapiens, A549, 72 h, read-out: (Bs)50, IC50 of drug B when used alone
[18] = Homo sapiens, OVCAR-3, 72 h, read-out: (Bs)50, IC50 of drug B when used alone, OVCAR-3 cells

IC50 (HT29 cells; [6]): > 100 µM
Compound: Nc1nc2c(c(=O)[nH]1)N(C=O)C(CNc1ccc(C(=O)N[C@@H](CCC(=O)O)C(=O)O)cc1)CN2 (stereo partly drawn) [Leucovorin, reference compound]

Compound: N.N.[Cl][Pt][Cl] [cisplatin, Cisplatin, reference compound]
IC50 (OVCAR-3 cells; read-out: (Bs)50, IC50 of drug B when used alone, OVCAR-3 cells): 20.6 µM | IC50 (HeLa cells; 72 hrs, read-out: (Bs)50, IC50 of drug B when used alone): 32.8 µM

IC50 (DU145 cells; [7]): 130 µM | IC50 (LNCaP cells; [8]): 72.5 µM | IC50 (LNCaP cells; [6]): 70 µM
Compound: CC(O)(CS(=O)(=O)c1ccc(F)cc1)C(=O)Nc1ccc(C#N)c(C(F)(F)F)c1 (stereo not drawn) [Bicalutamide, bicalutamide, reference compound]

IC50 (DU145 cells; [7]): 37.4 µM | IC50 (PC-3 cells; [6]): 101 µM | IC50 (LNCaP cells; [8]): 21.2 µM
Compound: C[C@]12CC[C@H](O)CC1=CC[C@@H]1[C@@H]2CC[C@]2(C)C(c3cccnc3)=CC[C@@H]12 [Abiraterone, abiraterone, reference compound]

Compound: S=C=NCCc1ccccc1 [Phenethyl isothiocyanate]
IC50 (DU145 cells; [9]): 19.4 µM | IC50 (U251 cells): 20.9 µM | IC50 (Saos-2 cells; [10]): 20.5 µM | IC50 (A549 cells; [9]): 22.3 µM | IC50 (A549 cells; Homo sapiens, A549, 72 h, read-out: (As)50, IC50 of drug A when used alone): 22 µM | IC50 (OVCAR-3 cells; read-out: (As)50, IC50 of drug A when used alone, OVCAR-3 cells): 31.8 µM and 9.87 µM | IC50 (HT29 cells; [11]): 29.2 µM | IC50 ([1]; 72 hrs): 6.66 µM | IC50 ([1]; Homo sapiens, HL-60, 72 h): 6.27 µM | IC50 (SK-MEL-28 cells; [11]): 32.7 µM | IC50 (Jurkat E6-1 cells; Homo sapiens, Jurkat E6.1, 72 h): 12.1 µM | IC50 (Jurkat E6-1 cells): 11.6 µM and 12.1 µM and 11.5 µM | IC50 (HeLa cells; [12]): 16.1 µM | IC50 ([2]; Homo sapiens, AGS, 72 h, read-out: (As)50, IC50 of drug A when used alone, AGS cells): 14.7 µM | IC50 ([2]; read-out: (As)50, IC50 of drug A when used alone, AGS cells, 72 hrs): 11.8 µM | IC50 (PC-3 cells; [11]): 52.6 µM | IC50 [3, 13]: 19.6 µM | IC50 [4]: 16 µM | IC50 (LNCaP cells; [14]): 20.4 µM | IC50 [5, 15]: 25.1 µM

Compound: S=C=NCc1ccccc1 [Benzyl isothiocyanate, benzyl isothiocyanate]
IC50 (Saos-2 cells; [10]): 14.5 µM | IC50 ([1]; Homo sapiens, HL-60, 72 h): 11.5 µM | IC50 (HeLa cells; [12]): 14.7 µM | IC50 [3, 13]: 23.4 µM | IC50 [4]: 13.2 µM | IC50 (LNCaP cells; [14]): 18.5 µM | IC50 [5, 15]: 11.4 µM

IC50 (DU145 cells; [7]): 0.0265 µM
Compound: CO[C@H]1C(=O)[C@]2(C)[C@@H](OC)C[C@H]3OC[C@@]3(OC(C)=O)[C@H]2[C@H](OC(=O)c2ccccc2)[C@]2(O)C[C@H](OC(=O)[C@H](O)[C@@H](NC(=O)OC(C)(C)C)c3ccccc3)C(C)=C1C2(C)C [Cabazitaxel]

IC50 [2, 16]: 0.00974 µM | IC50 ([5]; read-out: (Bs)50, IC50 of drug B when used alone, MDA-MB-231 cells): 0.391 µM
Compound: CC(=O)O[C@@]12CO[C@@H]1C[C@H](O)[C@@]1(C)C(=O)[C@H](O)C3=C(C)[C@@H](OC(=O)[C@H](O)[C@@H](NC(=O)OC(C)(C)C)c4ccccc4)C[C@@](O)([C@@H](OC(=O)c4ccccc4)[C@H]21)C3(C)C [docetaxel, reference compound]

IC50 (A549 cells; [17]): 0.08 µM
Compound: CN(Cc1cnc2nc(N)nc(N)c2n1)c1ccc(C(=O)N[C@@H](CCC(=O)O)C(=O)O)cc1 [methotrexate, reference compound]

IC50 (OVCAR-3 cells; [18]): 1.74 µM | IC50 [2, 16]: 0.0534 µM
Compound: COc1cccc2c1C(=O)c1c(O)c3c(c(O)c1C2=O)C[C@@](O)(C(=O)CO)C[C@@H]3O[C@H]1C[C@H](N)[C@H](O)[C@H](C)O1 [adriamycin, reference compound]
IC50 (Saos-2 cells; Homo sapiens, SAOS-2, 72 h, read-out: (Bs)50, IC50 of drug B when used alone): 0.899 µM | IC50 (Saos-2 cells; [6]): 0.574 µM

IC50 (A549 cells; [17]): 9.54 µM | IC50 (OVCAR-3 cells; [18]): 89.7 µM | IC50 [3, 6]: 32.4 µM
Compound: Nc1ccn([C@@H]2O[C@H](CO)[C@@H](O)C2(F)F)c(=O)n1 [gemcitabine, Gemcitabine, reference compound]

IC50 (SK-MEL-28 cells; [6]): 1.2 µM
Compound: CCCS(=O)(=O)Nc1ccc(F)c(C(=O)c2c[nH]c3ncc(-c4ccc(Cl)cc4)cc23)c1F [Vemurafenib, reference compound]

From patent publication US10010520B2, “Combined application of isothiocyanate compound and anti-cancer medicine” (JC (WUXI) COMPANY, INC., priority 2013, dated 2018)
